Where two headings read alike, the source gives them in different places.
Columns and labels:
GLP-1R [1] = biological target: T1, GLP-1R (Homo sapiens, UniProt P43220); assay: HitHunter cAMP assay (GLP-1R); format: cell-based; conditions: cAMP; for Emax: read-out: (Emax) GLP-1R
Method in brief: (§1)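 Duplicate 22-point, 2-fold agonist titrations applied to receptor-expressing suspension cells in IBMX-containing HBSS; 30 min RT stimulation. Read: luminescent cAMP immunocompetition after O/N dark incubation.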

mice = assay: Glucose tolerance test (GTT); format: in vivo, mouse; conditions: 24 h GTT, s.c., percent of vehicle
Method in brief: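 Compounds diluted in PBS from 1 mM DMSO stocks and given subcutaneously 15 min (5-6 h fast), 4 h (16 h overnight fast), 16 h or 24 h before intraperitoneal glucose (2 g/kg). Tail blood glucose read at 10–120 min post-glucose, at least 6 mice per time-point. Glucose AUC over time determined.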

GIP-R = biological target: T2, GIP-R (Homo sapiens, UniProt P48546); assay: HitHunter cAMP assay (GIP-R); format: cell-based; conditions: cAMP; for Emax: read-out: (Emax) GIP-R
T2 sequence (P48546 22-466): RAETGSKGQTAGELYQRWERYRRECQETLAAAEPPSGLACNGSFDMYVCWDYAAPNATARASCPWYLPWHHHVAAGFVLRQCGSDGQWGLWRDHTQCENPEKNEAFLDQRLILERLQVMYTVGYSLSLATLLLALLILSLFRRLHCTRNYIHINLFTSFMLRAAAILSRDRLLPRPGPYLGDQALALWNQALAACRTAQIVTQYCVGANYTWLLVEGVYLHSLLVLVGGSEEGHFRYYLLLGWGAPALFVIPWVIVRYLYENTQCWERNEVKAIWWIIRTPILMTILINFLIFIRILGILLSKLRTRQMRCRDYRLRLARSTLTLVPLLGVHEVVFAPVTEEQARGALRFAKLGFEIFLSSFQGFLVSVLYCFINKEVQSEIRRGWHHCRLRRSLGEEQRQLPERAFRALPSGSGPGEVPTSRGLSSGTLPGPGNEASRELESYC
Method in brief: as §1

GLP-1R [2] = biological target: T1, GLP-1R; assay: PathHunter β-arrestin assay; format: cell-based
Method in brief: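 Following a 90 min agonist exposure at 37 °C in 0.2% BSA medium, β-arrestin coupling was detected by chemiluminescence after 3 h at room temperature.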

[3] = Table 3, read-out: EC50 GLP-1R/nM
[4] = Table 3A, read-out: EC50 GLP-1R/nM
[5] = Table 3, read-out: EC50 GIP-R/nM
[6] = Table 3A, read-out: EC50 GIP-R/nM
[7] = PathHunter β-arrestin assay, read-out: β-arrestin activity EC50

T1 sequence (P43220 24-463): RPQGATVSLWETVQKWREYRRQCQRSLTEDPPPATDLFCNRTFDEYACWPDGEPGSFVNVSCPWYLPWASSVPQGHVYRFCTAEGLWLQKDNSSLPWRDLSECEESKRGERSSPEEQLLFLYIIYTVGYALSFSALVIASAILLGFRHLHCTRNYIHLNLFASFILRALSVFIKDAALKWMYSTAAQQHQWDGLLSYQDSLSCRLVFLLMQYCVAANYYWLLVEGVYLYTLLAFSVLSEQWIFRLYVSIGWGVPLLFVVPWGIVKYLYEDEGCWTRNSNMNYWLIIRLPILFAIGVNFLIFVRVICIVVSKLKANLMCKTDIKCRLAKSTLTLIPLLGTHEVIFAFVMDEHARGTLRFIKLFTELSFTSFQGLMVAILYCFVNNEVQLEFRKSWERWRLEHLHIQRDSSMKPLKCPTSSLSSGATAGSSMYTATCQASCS

Row | SMILES | Emax (GLP-1R [1]; Table 3) | EC50 (GLP-1R [1]; [3]) | Emax (GLP-1R [1]; Table 3A) | EC50 (GLP-1R [1]; [4]) | AUC score (mice; dose range 2-5 nmol/kg) | Emax (GIP-R; Table 3) | EC50 (GIP-R; [5]) | Emax (GIP-R; Table 3A) | EC50 (GIP-R; [6]) | EC50 (GLP-1R [2]; [7]) | EC50 (GLP-1R [1]; EC50 GLP-1R/nM, Table 3) | EC50 (GLP-1R [1]; EC50 GLP-1R/nM, Table 3A) | AUC score (mice; dose range 5.1-15 nmol/kg) | EC50 (GIP-R; EC50 GIP-R/nM, Table 3) | EC50 (GIP-R; EC50 GIP-R/nM, Table 3A) | EC50 (GLP-1R [2])
1 | CCCCCCCCCCCCCCCC(=O)N[C@@H](CCC(=O)NCCCC[C@H](NC(=O)[C@H](CO)NC(=O)[C@@H]1CCCN1C(=O)[C@@H]1CCCN1C(=O)[C@@H]1CCCN1C(=O)[C@H](C)NC(=O)CNC(=O)[C@H](CO)NC(=O)[C@H](CO)NC(=O)[C@@H]1CCCN1C(=O)CNC(=O)CNC(=O)[C@H](C)NC(=O)[C@H](CC(C)C)NC(=O)[C@H](CC(C)C)NC(=O)[C@H](Cc1c[nH]c2ccccc12)NC(=O)[C@H](CC(N)=O)NC(=O)[C@@H](NC(=O)[C@H](Cc1ccccc1)NC(=O)[C@H](CCC(=O)O)NC(=O)C(C)(C)NC(=O)[C@H](C)NC(=O)[C@H](C)NC(=O)[C@H](CCC(N)=O)NC(=O)[C@H](CCCCN)NC(=O)[C@H](CC(=O)O)NC(=O)[C@H](CC(C)C)NC(=O)[C@H](Cc1ccc(O)cc1)NC(=O)[C@@H](NC(=O)[C@H](CO)NC(=O)[C@H](Cc1ccc(O)cc1)NC(=O)[C@H](CC(=O)O)NC(=O)[C@H](CO)NC(=O)[C@@H](NC(=O)[C@H](Cc1ccccc1)NC(=O)[C@@H](NC(=O)CNC(=O)[C@H](CCC(=O)O)NC(=O)CNC(=O)CCN1CCCCC1=O)[C@@H](C)O)[C@@H](C)O)[C@@H](C)CC)C(C)C)C(N)=O)C(=O)O [Compound 1] | 97% | 0.1 to 1 nM | 97% | 0.1 to 1 nM | 3 (AUC score 3 = 51-75%) | 23% | 1 to 10 nM | 23% | 10 to 100 nM | > 1000 nM | – | – | – | – | – | –
2 | CCCCCCCCCCCCCCCC(=O)N[C@@H](CCC(=O)NCCCC[C@H](NC(=O)[C@H](CO)NC(=O)[C@@H]1CCCN1C(=O)[C@@H]1CCCN1C(=O)[C@@H]1CCCN1C(=O)[C@H](C)NC(=O)CNC(=O)[C@H](CO)NC(=O)[C@H](CO)NC(=O)[C@@H]1CCCN1C(=O)CNC(=O)CNC(=O)[C@H](C)NC(=O)[C@H](CC(C)C)NC(=O)[C@H](CC(C)C)NC(=O)[C@H](Cc1c[nH]c2ccccc12)NC(=O)[C@H](CC(N)=O)NC(=O)[C@@H](NC(=O)[C@H](Cc1ccccc1)NC(=O)[C@H](CCC(=O)O)NC(=O)C(C)(C)NC(=O)[C@H](C)NC(=O)[C@H](C)NC(=O)[C@H](CCC(N)=O)NC(=O)[C@H](CCCCN)NC(=O)[C@H](CC(=O)O)NC(=O)[C@H](CC(C)C)NC(=O)[C@H](Cc1ccc(O)cc1)NC(=O)[C@@H](NC(=O)[C@H](CO)NC(=O)[C@H](Cc1ccc(O)cc1)NC(=O)[C@H](CC(=O)O)NC(=O)[C@H](CO)NC(=O)[C@@H](NC(=O)[C@H](Cc1ccccc1)NC(=O)[C@@H](NC(=O)CNC(=O)[C@H](CCC(=O)O)NC(=O)CSCC(=O)NCCN1C(=O)C(C)=C(C)C1=O)[C@@H](C)O)[C@@H](C)O)[C@@H](C)CC)C(C)C)C(N)=O)C(=O)O [Compound 77] | 90% | – | 90% | – | – | 82% | – | 82% | – | – | 0.1 to 1 nM | 0.1 to 1 nM | 2 (AUC score 2 = 26-50%) | 0.1 to 1 nM | 0.1 to 1 nM | > 1000 nM
3 | CCCCCCCCCCCCCCCC(=O)N[C@@H](CCC(=O)NCCCC[C@H](NC(=O)[C@H](CO)NC(=O)[C@@H]1CCCN1C(=O)[C@@H]1CCCN1C(=O)[C@@H]1CCCN1C(=O)[C@H](C)NC(=O)CNC(=O)[C@H](CO)NC(=O)[C@H](CO)NC(=O)[C@@H]1CCCN1C(=O)CNC(=O)CNC(=O)[C@H](C)NC(=O)[C@H](CC(C)C)NC(=O)[C@H](CC(C)C)NC(=O)[C@H](Cc1c[nH]c2ccccc12)NC(=O)[C@H](CC(N)=O)NC(=O)[C@@H](NC(=O)[C@H](Cc1ccccc1)NC(=O)[C@H](CCC(=O)O)NC(=O)C(C)(C)NC(=O)[C@H](C)NC(=O)[C@H](C)NC(=O)[C@H](CCC(N)=O)NC(=O)[C@H](CCCCN)NC(=O)[C@H](CC(=O)O)NC(=O)[C@H](CC(C)C)NC(=O)[C@H](Cc1ccc(O)cc1)NC(=O)[C@@H](NC(=O)[C@H](CO)NC(=O)[C@H](Cc1ccc(O)cc1)NC(=O)[C@H](CC(=O)O)NC(=O)[C@H](CO)NC(=O)[C@@H](NC(=O)[C@H](Cc1ccccc1)NC(=O)[C@@H](NC(=O)CNC(=O)[C@H](CCC(=O)O)NC(=O)CSCC(=O)NCCN1CCCCC1=O)[C@@H](C)O)[C@@H](C)O)[C@@H](C)CC)C(C)C)C(N)=O)C(=O)O [Compound 65] | 96% | 0.1 to 1 nM | 96% | 0.1 to 1 nM | 2 (AUC score 2 = 26-50%) | 42% | 1 to 10 nM | 42% | 1 to 10 nM | > 1000 nM | – | – | – | – | – | –
4 | CCCCCCCCCCCCCCCC(=O)N[C@@H](CCC(=O)NCCCC[C@H](NC(=O)[C@H](CO)NC(=O)[C@@H]1CCCN1C(=O)[C@@H]1CCCN1C(=O)[C@@H]1CCCN1C(=O)[C@H](C)NC(=O)CNC(=O)[C@H](CO)NC(=O)[C@H](CO)NC(=O)[C@@H]1CCCN1C(=O)CNC(=O)CNC(=O)[C@H](C)NC(=O)[C@H](CC(C)C)NC(=O)[C@H](CC(C)C)NC(=O)[C@H](Cc1c[nH]c2ccccc12)NC(=O)[C@H](CC(N)=O)NC(=O)[C@@H](NC(=O)[C@H](Cc1ccccc1)NC(=O)[C@H](CCC(=O)O)NC(=O)C(C)(C)NC(=O)[C@H](C)NC(=O)[C@H](C)NC(=O)[C@H](CCC(N)=O)NC(=O)[C@H](CCCCN)NC(=O)[C@H](CC(=O)O)NC(=O)[C@H](CC(C)C)NC(=O)[C@H](Cc1ccc(O)cc1)NC(=O)[C@@H](NC(=O)[C@H](CO)NC(=O)[C@H](Cc1ccc(O)cc1)NC(=O)[C@H](CC(=O)O)NC(=O)[C@H](CO)NC(=O)[C@@H](NC(=O)[C@H](Cc1ccccc1)NC(=O)[C@@H](NC(=O)CNC(=O)[C@H](CCC(=O)O)NC(=O)CCNC(=O)CN1CCCCC1=O)[C@@H](C)O)[C@@H](C)O)[C@@H](C)CC)C(C)C)C(N)=O)C(=O)O [Compound 5] | 95% | < 0.1 nM | 95% | < 0.1 nM | 2 (AUC score 2 = 26-50%) | 74% | 1 to 10 nM | 74% | 1 to 10 nM | 10 to 1000 nM | – | – | – | – | – | –
5 | CCCCCCCCCCCCCCCC(=O)N[C@@H](CCC(=O)NCCCC[C@H](NC(=O)[C@H](CO)NC(=O)[C@@H]1CCCN1C(=O)[C@@H]1CCCN1C(=O)[C@@H]1CCCN1C(=O)[C@H](C)NC(=O)CNC(=O)[C@H](CO)NC(=O)[C@H](CO)NC(=O)[C@@H]1CCCN1C(=O)CNC(=O)CNC(=O)[C@H](C)NC(=O)[C@H](CC(C)C)NC(=O)[C@H](CC(C)C)NC(=O)[C@H](Cc1c[nH]c2ccccc12)NC(=O)[C@H](CC(N)=O)NC(=O)[C@@H](NC(=O)[C@H](Cc1ccccc1)NC(=O)[C@H](CCC(=O)O)NC(=O)C(C)(C)NC(=O)[C@H](C)NC(=O)[C@H](C)NC(=O)[C@H](CCC(N)=O)NC(=O)[C@H](CCCCN)NC(=O)[C@H](CC(=O)O)NC(=O)[C@H](CC(C)C)NC(=O)[C@H](Cc1ccc(O)cc1)NC(=O)[C@@H](NC(=O)[C@H](CO)NC(=O)[C@H](Cc1ccc(O)cc1)NC(=O)[C@H](CC(=O)O)NC(=O)[C@H](CO)NC(=O)[C@@H](NC(=O)[C@H](Cc1ccccc1)NC(=O)[C@@H](NC(=O)CNC(=O)[C@H](CCC(=O)O)NC(=O)CSCC(=O)NCCN1CCCCCC1=O)[C@@H](C)O)[C@@H](C)O)[C@@H](C)CC)C(C)C)C(N)=O)C(=O)O [Compound 41] | 100 to 104% | – | 100 to 104% | – | 4 (AUC score 4 = 76-100%) | 75% | – | 75% | – | – | 0.1 to 1 nM | 0.1 to 1 nM | – | 1 to 10 nM | 1 to 10 nM | > 1000 nM
